Assay results as given in patent publication US20230390277A1, “METHODS TO SENSITIZE TUMORS TO TREATMENT BY IMMUNOTHERAPY” (Ohio State Innovation Foundation, priority 2020, published 2023).
Residues, ends and D or L forms follow the SMILES beside them. *: point of attachment. Cbz = O=C(OCc1ccccc1)*

Columns and labels:
MP2 pODD flank tumors = assay: in vivo bioluminescent imaging, heterotopic MP2 pODD flank tumors; design: species or system mouse
Description: In vivo bioluminescent imaging. […] For heterotopic flank tumor experiments, 1×10^6 HeLa pODD or 5×10^6 MP2 cells were injected subcutaneously (s.c.) into the flanks of 6-wk-old female (HeLa pODD) or male (N1P2 pODD or MP2 CMV) immunocompromised athymic nu/nu mice. Replicate experiments with groups of 4-6 mice were used for statistical reproducibility. Caliper measurements of opposing diameters were used to calculate the tumor volumes using the modified ellipsoidal formula: tumor volume=(length×width^2)[23]. Upon reaching 100 mm^3, the animals were given 100 mg/kg D-luciferin intraperitoneally and bioluminescence images were captured using IVIS In Vivo Imaging System Lumina II (Perkin Elmer Inc). […] Bioluminescent data were analyzed using living Image software (Perkin Elmer Inc) and calculated as photon flux/sec. Obtained individual photon flux peak values were then normalized to baseline for each mouse and averaged per group. Gas inhalation experiments were performed by switching medical air and carbogen gas sources for the IVIS anesthesia vaporizer. Initial baselines were established in medical air under anesthesia, then the mice were subjected to 30 minutes of either medical air or carbogen rebreathing in an air-tight chamber while awake. After 30 minutes, photon flux was established in respective gas sources as a carrier for isoflurane anesthesia.

[1] = tested on: pODD-Luc reporter in MP2 pODD cells; assay: in vitro luciferase assay, MP2 pODD cells; assay type: cell-based, human; conditions: one hour of 10 μM
Description: PCR-amplified cassette was then digested with Asci and Pmel restriction enzymes and ligated into pLenti-C-Myc-DDK-IRES-Puro. Correct orientation and sequence was confirmed by Sanger DNA sequencing. HeLa pODD and MIP2 pODD transfectants were selected with 2 μg/ml Puromycin for two weeks. Stable MP2 CMV Cells were generated by lentiviral transduction of MP2 cells with pLenti-CMV-Puro-Luc lentiviral vector (Addgene#17477) with 2 Puromycin selection for two weeks. Cells were grown in Dulbecco's Modified Eagle's Medium (DMEM) containing 25 mM D-glucose, 4 mM glutamine and 44 mM sodium bicarbonate in 5% CO2, if not stated otherwise. The cells were exposed to hypoxia (1% O2) in H35 Hypoxic Workstation (Hypoxygen) with 5% CO2 at 37° C. In some experiments, we used a hypoxia mimetic dimethyloxalyglycine (DMOG) as described. Cell counts and cellular proliferation were established using hemocytometer to determine the cell number and trypan blue exclusion assay to establish the fraction of viable/dead cells. All human cell lines have been authenticated using STR profiling within the past 3 years. All experiments were performed with mycoplasma-free cells.
In vitro luciferase Assay. Proteins were extracted using Luciferase Assay Lysis Buffer (125 mM Tris-HCl, pH 7.5, 11.0 mM DTT, 10 mM EGTA, 50% Glycerol, 5% Triton X-100) and 200 μl/sample were transferred to 96-well plate and D-luciferin was added to the final concentration of 150 μg/ml immediately before the assay. Bioluminescence was measured on a Synergy H1 Hybrid Plate Reader (Biotek) after a 10-minute incubation period (10 slsample, Gain=150) in triplicates.

PDE10A = biological target: T1, PDE10A (Homo sapiens, UniProt Q9Y233); assay: PDE10A purified enzyme activity assay (BPS Bioscience); assay type: biochemical; conditions: for PDE inhibition IC25: dose response analysis
T1 construct: purchased BPS Bioscience
Text: We therefore defined the structure activity relationship (SAR) of PPV relative to two assays: inhibition of cellular OCR by Seahorse XE assay, and inhibition of PDE10A by purified enzyme activity (PDE10A activity assay, BPS Bioscience). […] Because the top portion of PPV was a planar structure like that of rotenone, we decided to focus our attention on the lower portion of the molecule.

murine tumors = assay: murine tumor hypoxia and radiation response; conditions: mouse, in vivo
[2] = tested on: orthotopic MP2 pODD tumors; assay: in vivo bioluminescent imaging, orthotopic MP2 pODD tumors; design: species or system mouse; conditions: 2 mg/kg, tail vein
Description: Orthotopic Panreatic Xenografts. MP2 PD AC cells (1×10^6) or the indicated derivates were implanted in immune-deficient athymic nu/nu mice following fACLIC approved protocols. Briefly, an incision was placed in the right flank of anesthetized animals the spleen and pancreas liberated. Cells were mixed 1:1 with Matfigel and implanted in the tail of the pancreas in 10 μl. Incision was sutured in 2 layers, animals given long lasting analgesics, and allowed to recover from anesthesia. Mice were returned to housing for post-op care and monitored daily for 4 days. Animals were checked weekly after that by palpation to determine tumor growth.
In vivo bioluminescent imaging. All animal experiments were performed according to protocols approved by the OSU institutional IAGLIC review (protocol #201200000124-R2), with daily veterinarian observation. For heterotopic flank tumor experiments, 1×10^6 HeLa pODD or 5×10^6 MP2 cells were injected subcutaneously (s.c.) into the flanks of 6-wk-old female (HeLa pODD) or male (N1P2 pODD or MP2 CMV) immunocompromised athymic nu/nu mice. […] Mice were anesthetized with 1.5% isoflurane and bioluminescence was measured every two minutes for the period of 25 minutes to identify peak response of each mouse to D-luciferin. Bioluminescent data were analyzed using living Image software (Perkin Elmer Inc) and calculated as photon flux/sec. […]

LLC tumor = assay: Lewis Lung Carcinoma (LLC) PD-1 blockade resistant tumor model; assay type: in vivo, mouse
Description: LLC tumor bearing mice were treated as indicated on days 5, 8 and relative growth followed. P=NS for PD-1 vs PPV->PD1, 0.04 for PD-i vs SMV32->PD-1.
Finally, as a rigorous test of anti-hypoxia agents as immuno-sensitizers of model tumors grown in mice, we next tested the PD-1 blockade resistant tumor model Lewis Lung Carcinoma (LLC). These tumors have been reported to be refractory to even full dose (200 ug/mouse) PD-1 blocking antibody.

[3] = tested on: CD8 T cells in MC38 tumors; assay: multispectral immunophenotyping of tumor infiltrating lymphocytes in MC38 tumors; assay type: in vivo, mouse; conditions: 2 mg/kg IV days 8, 10, 13; tumors harvested day 15
Description: Panel A Tumor infiltrating immune cells isolated from Day 15 MC38 tumors (n=4/g) were stained for lineage (CD45, CD3, CD8, […], and CD11b) and T cell exhaustion (PD1, Tim3, Slamf6, TOX, Tcf1, CD44, CD62L, CTLA4, Lag-3, Klrg1, T-bet, and Ki-67) (93-96). Cells were analyzed by Cytek Aurora multi-spectral FACS, and Umap generated based on concatenated file from each 4 FSC files without variation in cell number. Limp figure was generated by OMIQ with CD8 T cells (CD45+, CD3+, CD8+, CD11b−, CD4−). CD8 population was divided into 15 clusters based on T cell markers. Expression signatures marked (ovals) show progenitor exhausted T cells and terminally exhausted T cells. Panel B Statistical significance of clusters between control and SMV32 treated group were assessed by edgeR and SAM (n=4 mice per group).
In order to determine a mechanism by which reduction in hypoxia enhances immune function in the solid tumor, we undertook an investigation with multi spectral immunophenotyping. This technology uses 36 different markers simultaneously to characterize immune cell infiltrate in tumors. We performed this analysis on heterotopic NIC38 murine colorectal carcinoma tumors grown in immune-competent C57BI6 mouse strain. A cohort of tumor bearing mice were randomized to be treated with either IV delivery of vehicle control, or either PPV or SMV32. […]

MC38 colorectal tumor = assay: MC38 colorectal tumors in C57Bl6 mice, sensitization to anti PD-1; assay type: in vivo, mouse
Description: MC38 tumors grown in C57B16 mice were treated as indicated with irrelevant antibody, anti PD-1, or anti PD-1 after PPV or SMV32 n=5-7, P=<0.05* for PPV and <0.01** for SMV32.
Papaverine and SMV32 enhance PD-1 checkpoint blockade immunotherapy for cancer treatment. Because of the literature describing the immunomodulatory effects of hypoxia^(24-27), we hypothesized that reducing hypoxia may also enhance tumor lymphocyte infiltration and function and improve immune-mediated tumor cell killing. As those of skill in the art recognize, there is a large body of literature and research on increase the supply side of the hypoxia equation, but it has been heretofore an unexpected approach to decrease the tri demand side of the hypoxia equation. We tested tumors grown from the relatively immune-sensitive syngeneic MC38 colorectal tumor line in immuno-competent C5713116 mice. […] In a second cohort, we implanted 1×10^6 cells/mouse and after 5 days, when tumors were 50-100 mm^3, they were randomized into four groups. Therapy was started with either control rat IgG antibody, or a suboptimal dose of anti PD-1(CD279) blocking monoclonal antibody (BioXCell, clone 29F.1A12, 100 μg ip every 3 days).

cells = assay: in vitro washout experiments; assay type: cell-based; conditions: initial studies
ETC complex 1 (C1) = ETC complex 1 (C1) (Homo sapiens, UniProt O75251+O75306+P03886); assay: inhibition of cellular OCR by Seahorse XE assay; assay type: cell-based; conditions: for C1 inhibitor selectivity: vs PDE10A
Text: PPVs PDE and mitochondrial activities are chemically separable. Papaverine has been traditionally thought to be effective as a vasodilator for the treatment of conditions including erectile dysfunction because it can inhibit PDE10A (like PDE 5 inhibitors sildenafil and tadalafil). However, PDE inhibition is not responsible for OCR effects in vitro, so we postulated that there are two activities in PPV, one inhibiting ETC complex 1 (C1) and one inhibiting PDE10A that may reside in different parts of the molecule. We therefore defined the structure activity relationship (SAR) of PPV relative to two assays: inhibition of cellular OCR by Seahorse XE assay, and inhibition of PDE10A by purified enzyme activity (PDE10A activity assay, BPS Bioscience). Because PPV can compete with rotenone at complex 1 (23), we reasoned that they may be binding the same site and therefore the structures would be similar relative to their target. Because the top portion of PPV was a planar structure like that of rotenone, we decided to focus our attention on the lower portion of the molecule.

CMT167 flank lung tumors = CMT167 flank lung tumors in C57Bl6 mice, sensitization to anti PD-1; assay type: in vivo, mouse
Description: C57B16 mice bearing CMT167 flank lung tumors were treated as indicated on days 10 and 13 and relative volume followed.
There are reports in the literature indicating ways that hypoxia affects immune functions of lymphocytes, MDSCs and T regulatory cells infiltrating in the tumor.

T1 sequence (Q9Y233 whole entry): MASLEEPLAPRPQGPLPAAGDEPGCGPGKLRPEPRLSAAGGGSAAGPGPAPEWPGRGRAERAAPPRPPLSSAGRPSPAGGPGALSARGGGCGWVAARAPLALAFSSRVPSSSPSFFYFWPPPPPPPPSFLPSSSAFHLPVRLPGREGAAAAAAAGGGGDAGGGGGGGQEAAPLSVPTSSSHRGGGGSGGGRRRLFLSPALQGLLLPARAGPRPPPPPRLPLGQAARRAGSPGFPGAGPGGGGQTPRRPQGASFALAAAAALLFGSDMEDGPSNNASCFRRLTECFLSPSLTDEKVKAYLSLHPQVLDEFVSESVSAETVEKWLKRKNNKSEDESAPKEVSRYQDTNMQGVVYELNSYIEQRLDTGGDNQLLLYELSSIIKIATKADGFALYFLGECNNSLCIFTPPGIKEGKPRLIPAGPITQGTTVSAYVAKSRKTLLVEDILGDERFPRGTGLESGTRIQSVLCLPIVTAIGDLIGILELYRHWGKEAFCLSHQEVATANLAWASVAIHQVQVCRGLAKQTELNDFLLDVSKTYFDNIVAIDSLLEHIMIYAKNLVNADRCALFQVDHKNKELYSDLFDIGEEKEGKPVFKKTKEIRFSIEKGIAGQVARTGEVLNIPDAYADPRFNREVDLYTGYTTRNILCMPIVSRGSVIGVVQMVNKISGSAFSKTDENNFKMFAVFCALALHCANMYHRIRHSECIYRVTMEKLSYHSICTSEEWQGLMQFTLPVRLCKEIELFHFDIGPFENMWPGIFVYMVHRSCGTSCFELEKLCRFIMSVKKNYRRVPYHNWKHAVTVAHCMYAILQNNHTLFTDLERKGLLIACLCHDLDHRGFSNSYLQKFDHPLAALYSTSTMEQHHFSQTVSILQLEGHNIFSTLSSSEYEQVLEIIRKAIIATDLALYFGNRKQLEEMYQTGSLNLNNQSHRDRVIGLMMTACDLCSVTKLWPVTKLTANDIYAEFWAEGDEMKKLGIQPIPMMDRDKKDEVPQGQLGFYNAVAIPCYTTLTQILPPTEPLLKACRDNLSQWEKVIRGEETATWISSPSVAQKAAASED
Sequence of ETC complex 1 (C1) (O75251 39-213): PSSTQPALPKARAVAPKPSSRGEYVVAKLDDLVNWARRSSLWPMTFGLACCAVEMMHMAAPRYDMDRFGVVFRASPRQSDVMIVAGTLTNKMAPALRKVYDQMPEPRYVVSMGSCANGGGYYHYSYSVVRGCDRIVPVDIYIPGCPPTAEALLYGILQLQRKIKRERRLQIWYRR
Sequence of ETC complex 1 (C1) (O75306 34-463): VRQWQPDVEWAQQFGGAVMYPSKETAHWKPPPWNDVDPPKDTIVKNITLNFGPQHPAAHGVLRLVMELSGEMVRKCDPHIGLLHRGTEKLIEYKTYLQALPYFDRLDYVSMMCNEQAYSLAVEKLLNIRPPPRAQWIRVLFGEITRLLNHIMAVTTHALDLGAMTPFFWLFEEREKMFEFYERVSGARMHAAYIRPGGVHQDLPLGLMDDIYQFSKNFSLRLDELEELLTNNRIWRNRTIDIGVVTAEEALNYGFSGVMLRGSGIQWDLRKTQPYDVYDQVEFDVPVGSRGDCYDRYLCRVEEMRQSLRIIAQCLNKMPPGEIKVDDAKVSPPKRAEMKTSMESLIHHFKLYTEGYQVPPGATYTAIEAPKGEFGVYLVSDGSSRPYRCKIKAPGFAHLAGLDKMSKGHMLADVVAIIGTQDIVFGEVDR
Sequence of ETC complex 1 (C1) (P03886 whole entry): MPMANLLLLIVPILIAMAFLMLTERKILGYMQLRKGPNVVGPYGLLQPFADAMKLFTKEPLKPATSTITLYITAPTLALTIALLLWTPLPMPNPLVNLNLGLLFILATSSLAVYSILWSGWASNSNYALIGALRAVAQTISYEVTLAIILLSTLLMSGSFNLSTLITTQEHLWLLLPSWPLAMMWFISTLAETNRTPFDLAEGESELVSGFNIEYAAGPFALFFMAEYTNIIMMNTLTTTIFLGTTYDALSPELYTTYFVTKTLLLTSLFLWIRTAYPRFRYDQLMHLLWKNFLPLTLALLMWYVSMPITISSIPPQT

In the case of `O=[N+]([O-])c1ccc(O)c([N+](=O)[O-])c1` [2,4-DNP, 2,4-dinitrophenol], the “increase of photon flux compared to baseline” value (MP2 pODD flank tumors; single intraperitoneal dose of 20 mg/kg) is reported as 1.6 ×.
In the case of `O=C(O)C(Cl)Cl` [DCA, Dichloroacetate], the “increase of photon flux” value (MP2 pODD flank tumors; intraperitoneal 75 mg/kg) is reported as 1.8 ×.
With `CC(C)C[C@@H](C=O)NC(=O)[C@H](CC(C)C)NC(=O)[C@H](CC(C)C)NC(=O)OCc1ccccc1` [MG132] (Cbz-Leu-Leu-Leu-aldehyde) the “increase in pODD-Luc activity compared to 24 h hypoxia” value [1] was 70 fold and the “induction of pODD-Luc activity compared to normoxia” value [1] was 377 fold.
With `COc1cc2ccnc(Cc3cc(C)cc(C)c3)c2cc1OC` [SMV23] the “PDE inhibition IC25” value (PDE10A) was 0.5 µM and the “PDE10A inhibitor selectivity” value (PDE10A; vs C1) was “relatively pure”.
In the case of `COc1cc2ccnc(Cc3cccc4ccccc34)c2cc1OC` [SMV32], the “PDE inhibition IC25” value (PDE10A) is reported as 13.4 µM, the “radiation response” value (murine tumors) is reported as “increase radiation response of murine tumors” and the “tumor hypoxia” value (murine tumors) is reported as “reduce tumor hypoxia”. The “photon flux compared to PPV treated mice” value [2] was “trended to longer duration of action and lower luciferase activity at 6 hours”, the “comparison with PPV for sensitizing tumors to PD-1 blockade” value (LLC tumor; resistant LLC tumors) was “superior to PPV” and the “therapeutic effect, compound first and PD-1 antibody second” value (LLC tumor; treated on days 5, 8) was “significant growth inhibition”. For the same compound, the “exhausted CD8 T cell populations” value [3] was “shift from terminal (known to be non-functional) to progenitor cells”, the “effect on PD-1 blockade” value (MC38 colorectal tumor; 2 mg/kg iv 16 hours prior to suboptimal anti PD-1 (100 μg ip every 3 days)) was “enhance the effectiveness of suboptimal PD-1 blockade” and the “tumor growth, compound alone” value (MC38 colorectal tumor; repeated dosing, no antibody) was “no effect on tumor growth”. The “washout from cells” value (cells) was “does not wash out of cells”, the “mitochondrial activity” value (ETC complex 1 (C1)) was “retain mitochondrial activity” and the “C1 inhibitor selectivity” value (ETC complex 1 (C1)) was “relatively pure”. For the same compound, the “tumor growth delay” value (CMT167 flank lung tumors; given 16 hours prior to sub-optimal anti-PD-1, days 10 and 13) was “significant tumor growth delay” and the “comparison with PPV for sensitizing tumors to PD-1 blockade” value (CMT167 flank lung tumors; same dose as PPV) was “superior to PPV”.
In the case of `COc1ccc(OCc2nccc3cc(OC)c(OC)cc23)cc1OC` [SMV37], the “radiation response” value (murine tumors) is reported as “increase radiation response of murine tumors”, the “tumor hypoxia” value (murine tumors) is reported as “reduce tumor hypoxia” and the “mitochondrial activity” value (ETC complex 1 (C1)) is reported as “retain mitochondrial activity”. The “C1 inhibitor selectivity” value (ETC complex 1 (C1)) was “relatively pure”.
In the case of `CC(C)C[C@H](NC(=O)[C@H](Cc1ccccc1)NC(=O)c1cnccn1)B(O)O` [bortezomib], the “photon flux” value (MP2 pODD flank tumors; 1 mg/kg intraperitoneally, 2 hours post injection) is reported as “significant increase of photon flux”.
